Assay results reported in ChEMBL document CHEMBL4184134, “Daryamide Analogues from a Marine-Derived Streptomyces species” (J Nat Prod, 2017).
Active and inactive are the calls of the source.

How the values were obtained:
NCI-H2122 = assay: Cytotoxicity against human NCI-H2122 cells assessed as reduction in cell viability at 1 nM to 50 uM incubated for 96 hrs by Cell-titer Glo reagent based assay; assay type: functional
Bacillus subtilis = assay: Antimicrobial activity against Bacillus subtilis at incubated for 24 hrs by paper disk method; assay type: functional, organism-based
Pseudomonas aeruginosa = assay: Antimicrobial activity against Pseudomonas aeruginosa incubated for 24 hrs by paper disk method; assay type: functional, organism-based
Homo sapiens = organism: Homo sapiens; assay: Cytotoxicity against human HCC366 cells assessed as reduction in cell viability at 1 nM to 50 uM incubated for 96 hrs by Cell-titer Glo reagent based assay; assay type: functional
A549 = assay: Cytotoxicity against human A549 cells assessed as reduction in cell viability at 1 nM to 50 uM incubated for 96 hrs by Cell-titer Glo reagent based assay; assay type: functional
HCC44 = assay: Cytotoxicity against human HCC44 cells assessed as reduction in cell viability at 1 nM to 50 uM incubated for 96 hrs by Cell-titer Glo reagent based assay; assay type: functional

Measured: Activity

CC(C)C/C=C/C=C/C(=O)NC1=C[C@@](O)(CCC(N)=O)[C@H]2O[C@H]2[C@@H]1O
inactive: NCI-H2122 | Bacillus subtilis | Pseudomonas aeruginosa | Homo sapiens | A549 | HCC44

CC(C)/C=C/C=C/C(=O)NC1=C[C@@](O)(CCC(N)=O)[C@H]2O[C@H]2[C@@H]1O
inactive: NCI-H2122 | Bacillus subtilis | Pseudomonas aeruginosa | Homo sapiens | A549 | HCC44

CC(C)C/C=C/C=C/C(=O)N(CCO)c1cc(CCC(=O)O)c(O)cc1O
inactive: NCI-H2122 | Bacillus subtilis | Pseudomonas aeruginosa | Homo sapiens | A549 | HCC44

CC(C)C/C=C/C=C/C(=O)N[C@H]1CCCNC1=O
inactive: NCI-H2122 | Bacillus subtilis | Pseudomonas aeruginosa | Homo sapiens | A549 | HCC44

CCC/C=C/C=C/C(=O)NC1=C[C@@](O)(CCC(N)=O)[C@H]2O[C@H]2[C@@H]1O
inactive: NCI-H2122 | Bacillus subtilis | Pseudomonas aeruginosa | Homo sapiens | A549 | HCC44
